Test results: patent US20240082221A1, “COMPOSITIONS AND METHODS FOR THE IDENTIFICATION OF COMPOUNDS THAT PROTECT AGAINST LIPOFUSCIN CYTOTOXICITY” (priority 2021, published 2024)

Test system: LLO-induced atypical necroptosis
Experiment: LLO-induced atypical necroptosis, protection assay
Type: cell-based

| Compound | protection against LLO-induced atypical necroptosis |
| --- | --- |
| N=C1S/C(=C\c2cn[nH]c2-c2ccc(F)cc2)C(=O)N1c1nccs1 [Nec7, Necrostatin 7] | preventable |
| [O-][n+]1cccc(/C(Cl)=N/OC[C@H](O)CN2CCCCC2)c1 [arimoclomol] | preventable |
